According to ChEMBL document CHEMBL3885881, “DrugMatrix”:

Species: Rattus norvegicus
Test: DrugMatrix - Regimen: Daily Repeat
Type: toxicity, organism-based, Sprague-Dawley
Set-up: regimen Daily Repeat, gender Male, age 6-8 weeks
Conditions: in vivo, po, route oral GAVAGE, vehicle 100 % SALINE
[1] = 0 mg/kg, 72 h, tissue Blood, dose level Control, time 3 day
[2] = 0 mg/kg, 72 h, tissue Plasma, dose level Control, time 3 day
[3] = 0 mg/kg, 120 h, tissue Blood, dose level Control, time 5 day
[4] = 0 mg/kg, 120 h, tissue Plasma, dose level Control, time 5 day
[5] = 200 mg/kg, 72 h, tissue Blood, dose level Low, time 3 day
[6] = 200 mg/kg, 72 h, tissue Plasma, dose level Low, time 3 day

Substance: LEAD(IV) ACETATE
- ABSOLUTE BASOPHIL [1]: 0 CELLS/uL
- ABSOLUTE EOSINOPHIL [1]: 37 CELLS/uL
- ABSOLUTE LYMPHOCYTE [1]: 12359.33 CELLS/uL
- ABSOLUTE MONOCYTE [1]: 122.67 CELLS/uL
- ABSOLUTE SEGMENTED NEUTROPHIL [1]: 847.67 CELLS/uL
- BASOPHIL [1]: 0%
- EOSINOPHIL [1]: 0.33%
- ERYTHROCYTE COUNT [1]: 5.75 x10E6/uL
- HEMATOCRIT [1]: 36.08%
- LEUKOCYTE COUNT [1]: 13.37 x10E3/uL
- MEAN CORPUSCULAR HEMOGLOBIN CONCENTRATION [1]: 38.98 G/DL
- MONOCYTE [1]: 1%
- NEUTROPHIL [1]: 6.17%
- NUCLEATED RED BLOOD CELLS [1]: 0.17 /100WBC
- PLATELET COUNT [1]: 1202.17 x10E3/uL
- ALANINE AMINOTRANSFERASE [2]: 50.67 u/L
- ALKALINE PHOSPHATASE [2]: 356.33 u/L
- ASPARTATE AMINOTRANSFERASE [2]: 78.17 u/L
- BLOOD UREA NITROGEN [2]: 14.17 mg/dL
- CARBON DIOXIDE [2]: 31.33 mmol/L
- CHLORIDE [2]: 98.5 MEQ/L
- CHOLESTEROL [2]: 76.5 mg/dL
- CREATINE PHOSPHOKINASE [2]: 248.33 u/L
- CREATININE [2]: 0.2 mg/dL
- LACTATE DEHYDROGENASE [2]: 107 u/L
- LIPASE [2]: 9.83 u/L
- PHOSPHORUS [2]: 12.8 mg/dL
- POTASSIUM [2]: 6.75 MEQ/L
- TOTAL BILIRUBIN [2]: 0.18 mg/dL
- TOTAL PROTEIN [2]: 5.98 G/DL
- URIC ACID [2]: 1.42 mg/dL
- ABSOLUTE BASOPHIL [3]: 0 CELLS/uL
- ABSOLUTE EOSINOPHIL [3]: 0 CELLS/uL
- ABSOLUTE LYMPHOCYTE [3]: 8681.17 CELLS/uL
- ABSOLUTE MONOCYTE [3]: 79.83 CELLS/uL
- ABSOLUTE SEGMENTED NEUTROPHIL [3]: 689 CELLS/uL
- BASOPHIL [3]: 0%
- EOSINOPHIL [3]: 0%
- ERYTHROCYTE COUNT [3]: 5.49 x10E6/uL
- HEMATOCRIT [3]: 33.55%
- HEMOGLOBIN [3]: 13.1 G/DL
- LEUKOCYTE COUNT [3]: 9.45 x10E3/uL
- LYMPHOCYTE [3]: 92.33%
- MEAN CORPUSCULAR HEMOGLOBIN [3]: 23.92 pg
- MEAN CORPUSCULAR HEMOGLOBIN CONCENTRATION [3]: 39.07 G/DL
- MONOCYTE [3]: 0.67%
- NEUTROPHIL [3]: 7%
- NUCLEATED RED BLOOD CELLS [3]: 0.17 /100WBC
- PLATELET COUNT [3]: 1001.17 x10E3/uL
- ALANINE AMINOTRANSFERASE [4]: 49.33 u/L
- ALKALINE PHOSPHATASE [4]: 300.33 u/L
- ASPARTATE AMINOTRANSFERASE [4]: 83.5 u/L
- BLOOD UREA NITROGEN [4]: 16 mg/dL
- CHLORIDE [4]: 100.5 MEQ/L
- CHOLESTEROL [4]: 74.33 mg/dL
- CREATINE PHOSPHOKINASE [4]: 489.67 u/L
- CREATININE [4]: 0.35 mg/dL
- GLUCOSE [4]: 151 mg/dL
- LACTATE DEHYDROGENASE [4]: 133.67 u/L
- LIPASE [4]: 11.17 u/L
- PHOSPHORUS [4]: 10.88 mg/dL
- POTASSIUM [4]: 5.5 MEQ/L
- SODIUM [4]: 145.7 MEQ/L
- TOTAL BILIRUBIN [4]: 0.2 mg/dL
- TOTAL PROTEIN [4]: 6.05 G/DL
- URIC ACID [4]: 0.68 mg/dL
- ABSOLUTE BASOPHIL [5]: 0 CELLS/uL
- ABSOLUTE EOSINOPHIL [5]: 125.67 CELLS/uL
- ABSOLUTE LYMPHOCYTE [5]: 10005 CELLS/uL
- ABSOLUTE MONOCYTE [5]: 182.33 CELLS/uL
- ABSOLUTE SEGMENTED NEUTROPHIL [5]: 487 CELLS/uL
- BASOPHIL [5]: 0%
- EOSINOPHIL [5]: 1%
- ERYTHROCYTE COUNT [5]: 5.79 x10E6/uL
- HEMATOCRIT [5]: 34.9%
- HEMOGLOBIN [5]: 13.63 G/DL
- LEUKOCYTE COUNT [5]: 10.8 x10E3/uL
- LYMPHOCYTE [5]: 92.67%
- MEAN CORPUSCULAR HEMOGLOBIN [5]: 23.53 pg
- MEAN CORPUSCULAR HEMOGLOBIN CONCENTRATION [5]: 39.07 G/DL
- MEAN CORPUSCULAR VOLUME [5]: 60.3 fL
- NEUTROPHIL [5]: 5%
- NUCLEATED RED BLOOD CELLS [5]: 0 /100WBC
- PLATELET COUNT [5]: 964.33 x10E3/uL
- ALANINE AMINOTRANSFERASE [6]: 55.67 u/L
- ALKALINE PHOSPHATASE [6]: 341.67 u/L
- ASPARTATE AMINOTRANSFERASE [6]: 108 u/L
- BLOOD UREA NITROGEN [6]: 12.67 mg/dL
- CARBON DIOXIDE [6]: 29.33 mmol/L
- CHLORIDE [6]: 100 MEQ/L
- CHOLESTEROL [6]: 73.67 mg/dL
- CREATINE PHOSPHOKINASE [6]: 327.67 u/L
- CREATININE [6]: 0.26 mg/dL
- GLUCOSE [6]: 150.33 mg/dL
- LACTATE DEHYDROGENASE [6]: 126.67 u/L
- LIPASE [6]: 14.33 u/L
- POTASSIUM [6]: 6.03 MEQ/L
- TOTAL BILIRUBIN [6]: 0.0667 mg/dL
- TOTAL PROTEIN [6]: 5.93 G/DL
- URIC ACID [6]: 1.2 mg/dL
